SMILES strings stand for the structures.

Assay [1] concerns the target T1, FAK (Homo sapiens, UniProt Q05397). Kind of assay: Cell-based capture ELISA for inhibition of FAK autophosphorylation [pY397] in MiaPaCa2 cells. The protocol:
Cell-Based Assays for Inhibition of FAK Autophosphorylation: MiaPaCa2 and U87MG
ELISA kit from Invitrogen (KHO0441).
Reagents Provided in Biosource FAK [pY397]
The cells were then suspended in cell assay medium.

Assay [2] deals with T1, FAK. The assay can be described thus: biochemical.
The mark [3] stands for this setting: MIA-PaCa2 cells, + 50% mouse plasma (Table 3); read-out: Mean FAK Cell Mechanistic IC50 + 50% mP MIA-PaCa2.

T1 sequence (Q05397 whole entry): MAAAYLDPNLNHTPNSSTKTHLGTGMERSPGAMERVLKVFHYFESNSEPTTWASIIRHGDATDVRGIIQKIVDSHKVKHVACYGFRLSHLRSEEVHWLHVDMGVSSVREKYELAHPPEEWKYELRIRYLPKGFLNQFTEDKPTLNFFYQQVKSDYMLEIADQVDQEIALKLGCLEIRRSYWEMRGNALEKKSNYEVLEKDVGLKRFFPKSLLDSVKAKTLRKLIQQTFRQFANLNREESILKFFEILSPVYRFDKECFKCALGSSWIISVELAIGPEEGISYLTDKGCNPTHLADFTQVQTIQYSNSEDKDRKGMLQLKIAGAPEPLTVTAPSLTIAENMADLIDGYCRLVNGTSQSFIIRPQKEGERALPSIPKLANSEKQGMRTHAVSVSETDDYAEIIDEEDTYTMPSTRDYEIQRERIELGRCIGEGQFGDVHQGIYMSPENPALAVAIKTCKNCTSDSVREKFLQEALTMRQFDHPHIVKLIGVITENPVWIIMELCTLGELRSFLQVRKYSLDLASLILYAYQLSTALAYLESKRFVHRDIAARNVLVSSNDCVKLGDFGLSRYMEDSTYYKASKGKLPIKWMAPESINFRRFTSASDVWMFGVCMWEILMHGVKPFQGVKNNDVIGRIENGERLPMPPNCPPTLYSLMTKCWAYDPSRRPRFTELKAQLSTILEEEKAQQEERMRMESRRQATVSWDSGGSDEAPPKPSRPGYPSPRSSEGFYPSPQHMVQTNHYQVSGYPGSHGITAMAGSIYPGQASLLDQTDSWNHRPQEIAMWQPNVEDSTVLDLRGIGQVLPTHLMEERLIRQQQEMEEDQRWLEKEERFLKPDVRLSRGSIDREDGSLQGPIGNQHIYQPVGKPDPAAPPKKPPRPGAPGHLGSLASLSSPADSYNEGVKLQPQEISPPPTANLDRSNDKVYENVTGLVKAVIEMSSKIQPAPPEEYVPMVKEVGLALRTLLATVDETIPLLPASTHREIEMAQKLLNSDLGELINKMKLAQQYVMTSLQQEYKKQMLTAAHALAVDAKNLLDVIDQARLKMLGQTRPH

A word on the IC50: it is the point on the concentration scale where inhibition reaches its midpoint. Regarding `CCOP(=O)(Cc1ccc(Nc2ncc(C(F)(F)F)c(Nc3ccc(-c4cnn(C5CC(O)C5)c4)c4c3C(=O)N(C)C4)n2)c(OC)c1)OCC` (stereo not drawn) [Example 74, Diethyl (4-{[4-({7-[1-(3-hydroxycyclobutyl)-1H-pyrazol-4-yl]-2-methyl-3-oxo-2,3-dihydro-1H-isoindol-4-yl}amino)-5-(trifluoromethyl)pyrimidin-2-yl]amino}-3-methoxybenzyl)phosphonate], the IC50 in assay [1] (MIA-PaCa2 cells, + 50% mouse plasma (Table 2); read-out: Mean FAK Cell Mechanistic IC50 + 50% mP MIA-PaCa2) was less than 1000 nM.

As to `CCOP(=O)(Cc1ccc(Nc2ncc(C(F)(F)F)c(Nc3ccc(-c4cnn(CC(C)(C)O)c4)c4c3C(=O)N(C)C4)n2)c(OC)c1)OCC` [Example 98, Diethyl (4-{[4-({7-[1-(2-hydroxy-2-methylpropyl)-1H-pyrazol-4-yl]-2-methyl-3-oxo-2,3-dihydro-1H-isoindol-4-yl}amino)-5-(trifluoromethyl)pyrimidin-2-yl]amino}-3-methoxybenzyl)phosphonate], the IC50 in assay [1] (read-out: Mean FAK Cell Mechanistic IC50 + 50% mP MIA-PaCa2; MIA-PaCa2 cells, + 50% mouse plasma (Table 3)) is less than 1000 nM.

`CCOP(=O)(Cc1ccc(Nc2ncc(C(F)(F)F)c(Nc3ccc(C4=CCN(C(N)=O)CC4)c4c3C(=O)N(C)C4)n2)c(OC)c1)OCC` [Example 99, Diethyl (4-{[4-{[7-(1-carbamoyl-1,2,3,6-tetrahydropyridin-4-yl)-2-methyl-3-oxo-2,3-dihydro-1H-isoindol-4-yl]amino}-5-(trifluoromethyl)pyrimidin-2-yl]amino}-3-methoxybenzyl)phosphonate]: in assay [1] (setting [3]), the IC50 was less than 1000 nM.

`CCOP(=O)(Cc1ccc(Nc2ncc(C(F)(F)F)c(Nc3ccc([C@H]4CC[C@@H](N5CCN(C(C)=O)CC5)CC4)c4c3C(=O)N(C)C4)n2)c(OC)c1)OCC` [Example 237, Diethyl (4-{[4-({7-[cis-4-(4-acetylpiperazin-1-yl)cyclohexyl]-2-methyl-3-oxo-2,3-dihydro-1H-isoindol-4-yl}amino)-5-(trifluoromethyl)pyrimidin-2-yl]amino}-3-methoxybenzyl)phosphonate]: in assay [1] (setting [3]), the IC50 is less than 1000 nM.

For `CCOP(=O)(Cc1ccc(Nc2ncc(C(F)(F)F)c(Nc3ccc(C4=CCN(C)CC4)c4c3C(=O)N(C)C4)n2)cc1)OCC` [Example 248, Diethyl (4-{[4-{[2-methyl-7-(1-methyl-1,2,3,6-tetrahydropyridin-4-yl)-3-oxo-2,3-dihydro-1H-isoindol-4-yl]amino}-5-(trifluoromethyl)pyrimidin-2-yl]amino}benzyl)phosphonate], the IC50 in assay [2] is less than 1000 nM.

`CCOP(=O)(O)Cc1ccc(Nc2ncc(C(F)(F)F)c(Nc3ccc(N4CCN(C)CC4)c4c3C(=O)N(C)C4)n2)cc1` [Example 249, Ethyl hydrogen (4-{[4-{[2-methyl-7-(4-methylpiperazin-1-yl)-3-oxo-2,3-dihydro-1H-isoindol-4-yl]amino}-5-(trifluoromethyl)pyrimidin-2-yl]amino}benzyl) phosphonate] came in with an IC50 in assay [2] of less than 1000 nM.

`CCOP(=O)(Cc1ccc(Nc2ncc(C(F)(F)F)c(Nc3ccc(N4CCN(CC(=O)O)CC4)c4c3C(=O)N(C)C4)n2)c(OC)c1)OCC` [Example 252, [4-(7-{[2-({4-[(Diethoxyphosphoryl)methyl]-2-methoxyphenyl}amino)-5-(trifluoromethyl)pyrimidin-4-yl]amino}-2-methyl-1-oxo-2,3-dihydro-1H-isoindol-4-yl)piperazin-1-yl]acetic acid] displayed an IC50 in assay [2] of less than 1000 nM.

`CCOP(=O)(O)Cc1ccc(Nc2ncc(C(F)(F)F)c(Nc3ccc(N4CCN(C)CC4)c4c3C(=O)N(C)C4)n2)c(OC)c1` [Example 254, Ethyl hydrogen (3-methoxy-4-{[4-{[2-methyl-7-(4-methylpiperazin-1-yl)-3-oxo-2,3-dihydro-1H-isoindol-4-yl]amino}-5-(trifluoromethyl)pyrimidin-2-yl]amino}benzyl)phosphonate] gave an IC50 in assay [2] of less than 1000 nM.

As for `CN1Cc2c(c(Nc3nc(Nc4ccc(CP5(=O)OCCCO5)cc4)ncc3C(F)(F)F)ccc2[C@H]2CC[C@H](O)CC2)C1=O` [compound 230], the IC50 in assay [1] (setting [3]) is less than 1000 nM.
